From US20250230193A1, “CYCLIC COMPOUND HAVING SELECTIVE KRAS INHIBITORY EFFECT ON HRAS AND NRAS” (CHUGAI SEIYAKU KABUSHIKI KAISHA, priority 2022, published 2025)
*1 amine or outer side, *2 acyl side, *3 side chain or, on linkers, in order; H or OH if unused. Where a SMILES comes first, the peptide text is derived from it. Bridges are numbered along the chain shown (N, C = ends). [ ]: non-standard residue; d: D form. The star is where a group is joined. hPhe(3-Cl-4-CF3) = N[C@@H](CCc1ccc(C(F)(F)F)c(Cl)c1)C(=O)O; NEtPhe(4-CF3) = CCN[C@@H](Cc1ccc(C(F)(F)F)cc1)C(=O)O; NEtPhe(4-Me) = CCN[C@@H](Cc1ccc(C)cc1)C(=O)O; NMePhe(4-Me) = CN[C@@H](Cc1ccc(C)cc1)C(=O)O; X30 = CCN([C@H](C(=O)[*:2])C1CCCC1)[*:1]; NMeGly(cPent) = CN[C@H](C(=O)O)C1CCCC1; Hyp = O=C(O)[C@@H]1C[C@@H](O)CN1; NMeF = CN[C@@H](Cc1ccccc1)C(=O)O; NMeD = CN[C@@H](CC(=O)O)C(=O)O; NMeL = CN[C@@H](CC(C)C)C(=O)O; NMeV = CN[C@H](C(=O)O)C(C)C; Morpholide = C1CN(*)CCO1; NMeA = CN[C@@H](C)C(=O)O; Ac5c = NC1(C(=O)O)CCCC1; Aze = O=C(O)[C@@H]1CCN1; NEtG = CCNCC(=O)O; Sar = CNCC(=O)O

How the values were obtained:
[1] = target: GDP-bound NRAS wild-type protein (Homo sapiens, UniProt P01111); assay: Binding to NRAS by surface plasmon resonance (SPR), Single Cycle Kinetics; conditions: KD ratio NRAS/KRAS, SPR
[2] = target: GDP-bound HRAS wild-type protein (Homo sapiens, UniProt P01112); assay: Binding to HRAS by surface plasmon resonance (SPR), Single Cycle Kinetics; conditions: KD ratio HRAS/KRAS, SPR
GDP-bound HRAS wild-type protein, sequence (P01112 whole entry): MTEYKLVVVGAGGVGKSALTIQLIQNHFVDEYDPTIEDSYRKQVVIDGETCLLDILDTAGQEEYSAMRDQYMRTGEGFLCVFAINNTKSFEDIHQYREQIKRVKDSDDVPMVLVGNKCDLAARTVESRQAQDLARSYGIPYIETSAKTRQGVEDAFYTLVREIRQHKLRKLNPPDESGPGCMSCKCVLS

GDP-bound NRAS wild-type protein, sequence (P01111 whole entry): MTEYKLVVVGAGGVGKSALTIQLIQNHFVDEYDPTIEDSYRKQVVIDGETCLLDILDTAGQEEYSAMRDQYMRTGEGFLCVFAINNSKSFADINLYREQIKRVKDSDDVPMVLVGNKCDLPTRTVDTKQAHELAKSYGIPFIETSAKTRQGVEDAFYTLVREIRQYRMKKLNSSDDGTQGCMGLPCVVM

| SMILES | NRAS/KRAS (ratio of KD for GDP-bound NRAS wild-type to KD for KRAS) [1] | HRAS/KRAS (ratio of KD for GDP-bound HRAS wild-type to KD for KRAS) [2] |
| --- | --- | --- |
| CC[C@H](C)[C@@H]1NC(=O)[C@H](CC(C)C)N(C)C(=O)C[C@@H](C(=O)N2CCOCC2)N(C)C(=O)[C@H](C2CCCC2)N(C)C(=O)C2(CCCC2)NC(=O)[C@@H]2CCCN2C(=O)[C@H](CCc2ccc(C(F)(F)F)c(Cl)c2)NC(=O)CN(C)C(=O)[C@H](Cc2ccc(C(F)(F)F)cc2)N(CC)C(=O)[C@@H]2CCN2C(=O)[C@H](C)N(C)C1=O [PP0002] ([NMeL]I[NMeA][Aze][NEtPhe(4-CF3)][Sar][hPhe(3-Cl-4-CF3)]P[Ac5c][NMeGly(cPent)][NMeD]-Morpholide; lactam N-11) | C (A compound having a KD ratio of 0.1 or more and less than 3 is denoted as C) | C (A compound having a KD ratio of 0.1 or more and less than 3 is denoted as C) |
| CC[C@H](C)[C@@H]1NC(=O)[C@H](CC(C)C)N(C)C(=O)C[C@@H](C(=O)N2CCOCC2)N(C)C(=O)[C@H](C2CCCC2)N(C)C(=O)C2(CCCC2)NC(=O)[C@@H]2CCCN2C(=O)[C@H](CCc2ccc(C(F)(F)F)c(Cl)c2)NC(=O)CN(C)C(=O)[C@H](C2CCCC2)N(CC)C(=O)[C@@H]2CCN2C(=O)[C@H](C)N(C)C1=O [PP0003] ([NMeL]I[NMeA][Aze][X30][Sar][hPhe(3-Cl-4-CF3)]P[Ac5c][NMeGly(cPent)][NMeD]-Morpholide; lactam N-11) | C (A compound having a KD ratio of 0.1 or more and less than 3 is denoted as C) | C (A compound having a KD ratio of 0.1 or more and less than 3 is denoted as C) |
| CC[C@H](C)[C@@H]1NC(=O)[C@H](CC(C)C)N(C)C(=O)C[C@@H](C(=O)N2CCOCC2)N(C)C(=O)[C@H](C2CCCC2)N(C)C(=O)C2(CCCC2)NC(=O)[C@@H]2CCCN2C(=O)[C@H](CCc2ccc(C(F)(F)F)c(Cl)c2)NC(=O)CN(CC)C(=O)[C@H](Cc2ccc(C)cc2)N(C)C(=O)[C@@H]2CCN2C(=O)[C@H](C)N(C)C1=O [PP0004] ([NMeL]I[NMeA][Aze][NMePhe(4-Me)][NEtG][hPhe(3-Cl-4-CF3)]P[Ac5c][NMeGly(cPent)][NMeD]-Morpholide; lactam N-11) | C (A compound having a KD ratio of 0.1 or more and less than 3 is denoted as C) | C (A compound having a KD ratio of 0.1 or more and less than 3 is denoted as C) |
| CC[C@H](C)[C@@H]1NC(=O)[C@H](CC(C)C)N(C)C(=O)C[C@@H](C(=O)N2CCOCC2)N(C)C(=O)[C@H](C2CCCC2)N(C)C(=O)C2(CCCC2)NC(=O)[C@@H]2CCCN2C(=O)[C@H](CCc2ccc(C(F)(F)F)c(Cl)c2)NC(=O)CN(CC)C(=O)[C@H](Cc2ccc(C)cc2)N(CC)C(=O)[C@@H]2CCN2C(=O)[C@H](C)N(C)C1=O [PP0006] ([NMeL]I[NMeA][Aze][NEtPhe(4-Me)][NEtG][hPhe(3-Cl-4-CF3)]P[Ac5c][NMeGly(cPent)][NMeD]-Morpholide; lactam N-11) | C (A compound having a KD ratio of 0.1 or more and less than 3 is denoted as C) | C (A compound having a KD ratio of 0.1 or more and less than 3 is denoted as C) |
| CC[C@H](C)[C@@H]1NC(=O)[C@H](C)N(C)C(=O)C[C@@H](C(=O)N2CCOCC2)N(C)C(=O)[C@H](C2CCCC2)N(C)C(=O)C2(CCCC2)NC(=O)[C@@H]2CCCN2C(=O)[C@H](CCc2ccc(C(F)(F)F)c(Cl)c2)NC(=O)CN(C)C(=O)[C@H](Cc2ccc(C)cc2)N(CC)C(=O)[C@@H]2CCN2C(=O)[C@H](C)N(C)C1=O [PP0007] ([NMeA]I[NMeA][Aze][NEtPhe(4-Me)][Sar][hPhe(3-Cl-4-CF3)]P[Ac5c][NMeGly(cPent)][NMeD]-Morpholide; lactam N-11) | C (A compound having a KD ratio of 0.1 or more and less than 3 is denoted as C) | C (A compound having a KD ratio of 0.1 or more and less than 3 is denoted as C) |
| CC[C@H](C)[C@@H]1NC(=O)[C@H](CC(C)C)N(C)C(=O)C[C@@H](C(=O)N2CCOCC2)N(C)C(=O)[C@H](C2CCCC2)N(C)C(=O)C2(CCCC2)NC(=O)[C@@H]2CCCN2C(=O)[C@H](CCc2ccc(C(F)(F)F)c(Cl)c2)NC(=O)CN(C)C(=O)[C@H](Cc2ccccc2)N(C)C(=O)[C@@H]2CCN2C(=O)[C@H](C)N(C)C1=O [PP0011] ([NMeL]I[NMeA][Aze][NMeF][Sar][hPhe(3-Cl-4-CF3)]P[Ac5c][NMeGly(cPent)][NMeD]-Morpholide; lactam N-11) | C (A compound having a KD ratio of 0.1 or more and less than 3 is denoted as C) | C (A compound having a KD ratio of 0.1 or more and less than 3 is denoted as C) |
| CC[C@H](C)[C@@H]1NC(=O)[C@H](CC(C)C)N(C)C(=O)C[C@@H](C(=O)N2CCOCC2)N(C)C(=O)[C@H](C2CCCC2)N(C)C(=O)C2(CCCC2)NC(=O)[C@@H]2C[C@@H](O)CN2C(=O)[C@H](CCc2ccc(C(F)(F)F)c(Cl)c2)NC(=O)CN(C)C(=O)[C@H](Cc2ccc(C)cc2)N(CC)C(=O)[C@@H]2CCN2C(=O)[C@H](C)N(C)C1=O [PP0013] ([NMeL]I[NMeA][Aze][NEtPhe(4-Me)][Sar][hPhe(3-Cl-4-CF3)][Hyp][Ac5c][NMeGly(cPent)][NMeD]-Morpholide; lactam N-11) | C (A compound having a KD ratio of 0.1 or more and less than 3 is denoted as C) | C (A compound having a KD ratio of 0.1 or more and less than 3 is denoted as C) |
| CCO[C@@H]1C[C@H]2C(=O)NC3(CCCC3)C(=O)N(C)[C@@H](C3CCCC3)C(=O)N(C)[C@H](C(=O)N3CCOCC3)CC(=O)N(C)[C@@H](CC(C)C)C(=O)N[C@@H]([C@@H](C)CC)C(=O)N(C)[C@@H](C)C(=O)N3CC[C@H]3C(=O)N(CC)[C@@H](Cc3ccc(C)cc3)C(=O)N(C)CC(=O)N[C@@H](CCc3ccc(C(F)(F)F)c(Cl)c3)C(=O)N2C1 [PP0014] ([NMeL]I[NMeA][Aze][NEtPhe(4-Me)][Sar][hPhe(3-Cl-4-CF3)][Hyp](Et)[Ac5c][NMeGly(cPent)][NMeD]-Morpholide; lactam N-11) | C (A compound having a KD ratio of 0.1 or more and less than 3 is denoted as C) | C (A compound having a KD ratio of 0.1 or more and less than 3 is denoted as C) |
| CC[C@H](C)[C@@H]1NC(=O)[C@H](CC(C)C)N(C)C(=O)C[C@@H](C(=O)N2CCOCC2)N(C)C(=O)[C@H](C(C)C)N(C)C(=O)C2(CCCC2)NC(=O)[C@@H]2CCCN2C(=O)[C@H](CCc2ccc(C(F)(F)F)c(Cl)c2)NC(=O)CN(C)C(=O)[C@H](Cc2ccc(C)cc2)N(CC)C(=O)[C@@H]2CCN2C(=O)[C@H](C)N(C)C1=O [PP0015] ([NMeL]I[NMeA][Aze][NEtPhe(4-Me)][Sar][hPhe(3-Cl-4-CF3)]P[Ac5c][NMeV][NMeD]-Morpholide; lactam N-11) | C (A compound having a KD ratio of 0.1 or more and less than 3 is denoted as C) | C (A compound having a KD ratio of 0.1 or more and less than 3 is denoted as C) |
